In ChEMBL document CHEMBL1145682, “Bioactive compounds from Taiwania cryptomerioides” (J Nat Prod, 1997) one finds LC50 and EC50 data, which are given here for seven compounds.

Data set [1] concerns Aedes aegypti. The data set is described as follows: Insecticidal activity against yellow fever mosquito larvae. Format: functional.
The subject of data set [2] is A549. The data set can be described thus: Cytotoxicity against human A549 cells after 7 days by MTT assay. Format: functional. Particulars: A549, 168 h, read-out: ED50 (the source's name). Background: Tetrazolium dyes change colour on reduction, which living cells bring about.
Data set [3] has as its system HT-29. The data set can be described thus: Cytotoxicity against human HT-29 cells after 7 days by MTT assay. Format: functional. Particulars: HT-29, 168 h, read-out: ED50 (the source's name).
The subject of data set [4] is MCF7. The data set is described as follows: Cytotoxicity against human MCF7 cells after 7 days by MTT assay. The data set is classed as functional. The note with it: MCF7, 168 h, read-out: ED50 (the source's name).
Data set [5] in a line: Toxicity in Artemia salina. Format: organism-based. The note with it: in vivo.

≈ marks a conversion by molar mass, not a printed value.

With `CC1=C[C@H]2[C@@H](C(C)C)CC[C@@](C)(O)[C@H]2CC1=O`, the 50% lethal concentration (LC50) is 200 µg/mL (≈ 846 µM) in data set [1] and 54.4 µg/mL (≈ 230 µM) in data set [5]. Moreover, the EC50 turned out to be 8.78 µg/mL (≈ 37.1 µM) in data set [2], 7.85 µg/mL (≈ 33.2 µM) in data set [3] and 12.9 µg/mL (≈ 54.5 µM) in data set [4].

In the case of `CC(C)[C@@H]1CC[C@@](C)(O)[C@]2(O)[C@@H](O)C[C@@H](C)C[C@@H]12`, the LC50 is > 250 µg/mL in data set [1] and 84.8 µg/mL (≈ 331 µM) in data set [5]. The figures for the EC50 in data set [2], in data set [3] and in data set [4] were 13.3 µg/mL (≈ 52 µM), 12 µg/mL (≈ 46.8 µM) and 41 µg/mL (≈ 160 µM), respectively.

With `CC1=C[C@@H]2[C@@H](CC1=O)[C@](C)(O)CC[C@H]2C(C)C`, the LC50 in data set [1] came out at 50 µg/mL (≈ 212 µM); in data set [5] it was 200 µg/mL (≈ 846 µM). Also, the EC50 in data set [2] was found to be 32.2 µg/mL (≈ 136 µM); in data set [3], 32.5 µg/mL (≈ 138 µM); in data set [4], 30.1 µg/mL (≈ 127 µM).

With `CC(C)c1cc2c(cc1O)[C@@]1(C)CCCC(C)(C)[C@@H]1CC2` [FERRUGINOL], the LC50 is 3 µg/mL (≈ 10.5 µM) in data set [1] and 42.3 µg/mL (≈ 148 µM) in data set [5]. The EC50 worked out at 6.47 µg/mL (≈ 22.6 µM) in data set [2], 6.43 µg/mL (≈ 22.4 µM) in data set [3] and 23.4 µg/mL (≈ 81.8 µM) in data set [4].

Turning to `O=C1OCc2c1cc1ccc3c(c1c2-c1ccc2c(c1)OCO2)OCO3` [HELIOXANTHIN], the values for the LC50 in data set [1] and in data set [5] were 3 µg/mL (≈ 8.61 µM) and > 500 µg/mL, respectively.

Take `COc1cccc2c1C(=O)c1c(O)c3c(c(O)c1C2=O)C[C@@](O)(C(=O)CO)C[C@@H]3O[C@H]1C[C@H](N)[C@H](O)[C@H](C)O1` [DOXORUBICIN]: the values for the EC50 in data set [2], in data set [3] and in data set [4] were 0.00499 µg/mL (≈ 0.00918 µM), 0.0357 µg/mL (≈ 0.0657 µM) and 0.189 µg/mL (≈ 0.348 µM), respectively.

As for `CC1=C[C@@H]2[C@@H](CC1)[C@](C)(O)CC[C@H]2C(C)C`, the results for the LC50 in data set [1] and in data set [5] were 2 µg/mL (≈ 8.99 µM) and 9.4 µg/mL (≈ 42.3 µM), respectively. In addition, the EC50 in data set [2] came to 11.1 µg/mL (≈ 49.9 µM); in data set [3], 0.778 µg/mL (≈ 3.5 µM); in data set [4] it was 13.1 µg/mL (≈ 58.7 µM).

One may read the LC50 as the concentration that kills 50% of the test population. High values mean lower toxicity, low ones greater toxicity.
